Measurements from patent US20040038369A1, “Airway-specific trypsin-like enzymes and method of using the same” (priority 2000, published 2004).

Assays:
[1] = tested on: HB-EGF on surface of H292 cell membrane; assay: Surface antigen analysis (FACS) of HB-EGF on NCI-H292 cell membrane; assay type: cell-based, human
Procedure: (§1) NCI-H292 cells (purchased from ATCC) were cultured on a 10 cm dish in 10% FCS-containing RPMI-1640 until to reach a confluent state, subjected to the replacement of the culture medium by RPMI-1640 containing 0.1% of BSA, and further cultured for 24 hours. The cultured cells were washed with PBS, treated and floated in PBS containing 5 mM of EDTA at 37° C. for five minutes, and then suspended in 0.1%BSA-containing RPMI-1640 in a density of 1.0×10^7 cells/mL.
(§2) The above-described cell suspension and 0.1% BSA-containing RPMI-1640 containing HAST in a double concentration (600 mU/mL) were mixed with each other in equivalent amounts, respectively, and reacted with each other at 37° C. for 30 minutes (final cell concentration: 5.0×10^6 cells/mL, final HAST concentration: 300 mU/mL). The reaction solution was mixed with ice-cooled 1% FCS-containing PBS in a volume of 5 times that of the reaction solution to stop the reaction, and the treated solution was then supplied for a surface antigen analysis.
(§3) The cells subjected to the prescribed treatments were suspended in 1% FCS-containing PBS in a density of 1.0×10^7 cells/mL. 100 μL of the prepared cell suspension was mixed with a primary antigen (EGF back ground dyeing: 1 μg of normal mouse IgG1 (produced by R & D Corp.), EGF dyeing: 1 μg of an anti-EGF mouse monoclonal antibody (produced by R & D Corp.), HB-EGF back ground dyeing: free from the primary antigen, HB-EGF dyeing: 2 μg of an anti-HB-EGF goat polyclonal antibody (produced by R & D Corp.)) and reacted on ice for 30 minutes. The reaction product was once washed with 5 mL of 1% FCS-containing PBS, mixed with 2 μg of a secondary antigen (EGF back ground dyeing and EGF dyeing: FITC conjugated F(ab′)2 fragment to mouse IgG (produced by Dako Corp.), HB-EGF back ground dyeing and HB-EGF dyeing: Swine Anti-Goat Ig's Fluorescein Conjugate (produced by KPL Corp.)), and then reacted on ice for 30 minutes. The reaction solution was once washed with 5 mL of 1% FCS-containing PBS, and then mixed with Cell Fix (produced by Becton Dickinson Corp.) to immobilize the cells. The expression of the surface antigen was assayed with FACS Calibur (produced by Becton Dickinson Corp.) and analyzed with Cell Quest (produced by Becton Dickinson Corp.). Average fluorescence intensities were shown in the next table as the indicators of expression intensities.
(§4) HAST (600 mU/mL) was reacted with leupeptin (10 μM) or BB1101 (5 μM) in 0.1% BSA-containing RPMI-1640 on ice for 30 minutes, and the reaction solution was mixed with the equivalent amount of a cell suspension preliminarily treated with leupeptin (10 μM) or BB1101 (5 μM) at 37° C. for 30 minutes, and further treated at 37° C. for 30 minutes (final HAST concentration: 300 mU/mL, final leupeptin concentration: 10 μM, final BB1101 concentration: 5 μM, final cell concentration: 5.0×10^6 cells/mL). The reaction solution was mixed with ice-cooled 1% FCS-containing PBS in an amount of five times that of the reaction solution to stop the reaction, and then supplied for the surface antigen analysis.
(§5) The cells subjected to the prescribed treatments were suspended in 1% FCS-containing PBS in a density of 1.0×10^7 cells/mL. […]

[2] = tested on: EGF on surface of H292 cell membrane; assay: Surface antigen analysis (FACS) of EGF on NCI-H292 cell membrane; assay type: cell-based, human
Procedure: as §1, §2, §3, §4, §5

BEAS-2B = assay: Calcium influx in airway epithelial cell strain BEAS-2B; assay type: cell-based; conditions: AST 2 units/mL; trypsin 10 to 100 units/mL; SFLLRNamide 100 μM
Procedure: The Ca^2+ influx due to the AST was examined with respect to an airway epithelial cell strain BEAS-2B. The confluent cells adhered to six 10 cm dishes were used. The cells were peeled with a 10 mM EDTA/HEPES-Tyrode buffer solution for 10 minutes, recovered by a centrifugal treatment at 1,500 rpm at room temperature for 5 minutes, and then resuspended in 10 mL of HEPES-Tyrode buffer solution-Ca^2+ (−) pH 7.4. The recovered cells (about 1.1×10^7 cells) were suspended in 11 mL of HEPES-Tyrode buffer solution (1 μg/mL, containing Fura2-AM) to load the Fura2-AM at 37° C. for 30 minutes. The cells were recovered by a centrifugal treatment at 1,500 rpm at room temperature for 5 minutes, twice washed with HEPES-Tyrode buffer solution-Ca^2+ (−) pH 7.4, and then resuspended in 11 mL of HEPES-Tyrode buffer solution-Ca^2+ (−) pH 7.4. The cell suspension was mixed with […] of 1M CaCl2 to give a final concentration of 1 mM CaCl2, and then incubated in a shaded state at room temperature for 5 minutes. The prepared Fura2-AM-loaded infected cells were dispensed into a 96 well plate in a volume of 100 μL/well, further subjected to the dispensation of HEPES-Tyrode buffer solution-Ca^2+ (+) pH 7.4 in a volume of 80 μL/well, and then assayed with Fluorescence Drug Screening System (Hamamatsu Photonics Co.). […]

## HAST: human airway-specific trypsin-like enzyme; propeptide moiety bound to trypsin-like protein moiety via a disulfide bond
[1]; HAST 300 mU/mL
  cleavage of proHB-EGF on the surfaces of the cell membranes: cleaved
[1]; HAST 300 mU/mL, 37° C., 30 minutes, Back ground 4.5, PBS 8.72
  HB-EGF expression intensity on the surfaces of the cell membranes (average fluorescence intensity): 6.94
[1]; inhibitor experiment, HAST 300 mU/mL alone, Back ground 5.58, PBS 8.61
  HB-EGF expression intensity on the surfaces of the cell membranes (average fluorescence intensity): 6.26
[2]; HAST 300 mU/mL
  cleavage of proEGF on the surfaces of the cell membranes: cleaved
[2]; HAST 300 mU/mL, 37° C., 30 minutes, Back ground 4.62, PBS 7.26
  EGF expression intensity on the surfaces of the cell membranes (average fluorescence intensity): 4.88
[2]; inhibitor experiment, HAST 300 mU/mL alone, Back ground 8.44, PBS 10.79
  EGF expression intensity on the surfaces of the cell membranes (average fluorescence intensity): 8.33
BEAS-2B
  Ca2+ influx: observed
